Source: paper PMC9611521, “Optimization of Resveratrol Used as a Scaffold to Design Histone Deacetylase (HDAC-1 and HDAC-2) Inhibitors” (Pharmaceuticals, 2022)

Columns and labels:
HDAC-1 = HDAC-1 (Homo sapiens, UniProt Q13547); assay: Enzymatic HDAC inhibition assay (fluorescence), HDAC-1; format: biochemical; settings: compound at 10 µM
Method: (§1) Enzymatic assays to evaluate HDAC inhibition were performed, and the design involved three steps: (a) Preliminary screening to identify the most promising compounds; (b) Evaluation by a panel of HDAC isoforms to investigate selectivity; and (c) Determination of IC50 values. Firstly, compounds (4–7; 15–26) were evaluated at 10 µM against HDAC-1 and HDAC-2 (Table 2).
(§2) The enzymatic assay to evaluate HDAC inhibitory effects for all final compounds against the distinct isoforms was carried out in accordance with the previously described procedures (Lopes et al., 2021). All compounds were initially screened at 10 µM against HDAC-1 and HDAC-2. […] All the compounds were dissolved in DMSO. A serial dilution of the compounds was performed in 100% DMSO with the highest concentration at 1 mM. Each intermediate compound dilution (in 100% DMSO) was diluted 10x in assay buffer to form a 10% DMSO intermediate dilution in HDAC assay buffer. 5 µL of this dilution was added to a 50 µL reaction to bring the final concentration of DMSO to 1% in all the reactions. Three independent experiments were carried out in triplicate for all experiments. The fluorescence intensity was measured at an excitation of 360 nm and emission of 460 nm using a Tecan Infinite M1000 microplate reader, and the percentage of activity was calculated using the formula: % activity = (F − Fb)/(Ft − Fb), where F = the intensity of fluorescence in the presence of the compound. In the absence of the test compound, the fluorescent intensity (Ft) in each dataset was defined as 100% activity, while in the absence of HDAC, the fluorescent intensity (Fb) in each dataset was set to 0% activity.

HDAC-2 = HDAC-2 (Homo sapiens, UniProt Q92769); assay: Enzymatic HDAC inhibition assay (fluorescence), HDAC-2; format: biochemical; settings: compound at 10 µM
Chain of HDAC-2 (Q92769 whole entry): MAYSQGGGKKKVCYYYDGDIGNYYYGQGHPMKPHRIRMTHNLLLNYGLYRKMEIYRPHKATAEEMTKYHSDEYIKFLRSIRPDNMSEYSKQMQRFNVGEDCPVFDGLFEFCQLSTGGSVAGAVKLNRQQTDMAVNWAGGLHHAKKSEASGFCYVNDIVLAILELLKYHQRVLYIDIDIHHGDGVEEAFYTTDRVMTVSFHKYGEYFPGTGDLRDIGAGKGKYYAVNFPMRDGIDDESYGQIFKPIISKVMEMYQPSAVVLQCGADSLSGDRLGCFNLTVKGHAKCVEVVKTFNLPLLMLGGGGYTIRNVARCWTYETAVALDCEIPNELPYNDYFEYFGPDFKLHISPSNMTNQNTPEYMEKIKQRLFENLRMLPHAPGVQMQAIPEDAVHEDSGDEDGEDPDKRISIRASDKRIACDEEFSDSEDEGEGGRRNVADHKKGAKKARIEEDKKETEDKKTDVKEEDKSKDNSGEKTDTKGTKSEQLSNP
Method: as §1, §2

HDAC isoforms = test system: HDAC isoforms; parameters: method as in PMID 24023672; settings: RVT 100 µM, nuclear extract of HeLa cells; cited from earlier work
SIRT1 = test system: SIRT1; parameters: method as in PMID 30526767; settings: dose-dependent experiments; cited from earlier work

Chain of HDAC-1 (Q13547 whole entry, canonical isoform): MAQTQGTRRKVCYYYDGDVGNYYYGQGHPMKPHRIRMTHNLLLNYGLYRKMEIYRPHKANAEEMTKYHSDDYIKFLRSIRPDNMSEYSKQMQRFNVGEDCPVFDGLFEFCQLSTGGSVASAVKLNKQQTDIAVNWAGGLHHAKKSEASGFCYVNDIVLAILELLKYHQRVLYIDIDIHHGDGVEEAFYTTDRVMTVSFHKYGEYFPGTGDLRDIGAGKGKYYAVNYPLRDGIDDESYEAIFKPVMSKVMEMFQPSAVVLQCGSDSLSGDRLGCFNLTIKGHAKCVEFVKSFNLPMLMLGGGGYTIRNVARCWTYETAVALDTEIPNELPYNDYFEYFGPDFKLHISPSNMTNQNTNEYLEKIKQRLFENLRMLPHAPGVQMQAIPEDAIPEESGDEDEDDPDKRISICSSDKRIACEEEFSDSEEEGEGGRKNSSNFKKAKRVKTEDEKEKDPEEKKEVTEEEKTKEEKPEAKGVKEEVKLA

Row | SMILES | inhibition at 10 µM (HDAC-1) | inhibition at 10 µM (HDAC-2) | other results
1 | O=C(O)c1ccc(/C=C/c2ccccc2)cc1 [(6)] | 9 ± 1% | 0% | 
2 | Nc1ccc(/C=C/c2ccc(C(=O)Nc3ccccc3N)cc2)cc1 [Compound (4)] | 45 ± 1.2% | 28 ± 1% | 
3 | Nc1ccccc1NC(=O)c1ccc(/C=C/c2ccccc2)cc1 [Compound (7)] | 42 ± 0.7% | 32 ± 0.7% | melting point: 177 to 179 °C
4 | O=C(O)c1ccc(COc2ccccc2)cc1 [Compound (15)] | 16 ± 0.6% | 11% | HDAC-2 inhibition (HDAC-2; 10 µM): 10 ± 0.5%
5 | O=C(O)c1ccc(COc2ccc(O)cc2)cc1 [Compound (17)] | 12 ± 0.7% | 11 ± 0.5% | 
6 | NC(=O)c1ccccc1OCc1ccc(C(=O)O)cc1 [Compound (19)] | 13 ± 0.9% | 8 ± 0.6% | melting point: 196.5 to 198.6 °C
7 | Nc1ccccc1NC(=O)c1ccc(COc2ccccc2)cc1 [Compound (20)] | 87 ± 1.1% | 85 ± 1.1% | 
8 | Nc1ccccc1NC(=O)c1ccc(CNc2ccccc2)cc1 [Compound (21)] | 96 ± 1.3% | 93 ± 1.2% | 
9 | Nc1ccccc1NC(=O)c1ccc(COc2ccc(O)cc2)cc1 [Compound (22)] | 96 ± 1.2% | 92 ± 0.7% | 
10 | Nc1ccc(OCc2ccc(C(=O)Nc3ccccc3N)cc2)cc1 [Compound (23)] | 72 ± 1.1% | 52 ± 0.8% | 
11 | NC(=O)c1ccccc1OCc1ccc(C(=O)Nc2ccccc2N)cc1 [Compound (24)] | 86 ± 1% | 81 ± 1.1% | melting point: 162 to 163.7 °C
12 | Nc1ccccc1NC(=O)c1ccc(COc2ccc(N3C(=O)c4ccccc4C3=O)cc2)cc1 [Compound (25)] | 14 ± 0.5% | 21 ± 0.8% | 
13 | Nc1ccccc1NC(=O)c1ccc(COc2ccc(N3C(=O)c4cccc([N+](=O)[O-])c4C3=O)cc2)cc1 [Compound (26)] | 1 ± 0.5% | 6 ± 0.6% | 
14 | Oc1ccc(/C=C/c2cc(O)cc(O)c2)cc1 [Resveratrol (RVT), trans-3,5,4′-trihydroxystilbene] |  |  | inhibition of HDAC-1 and HDAC-10 (HDAC isoforms): 40%; inhibition of HDAC-4 and HDAC-9 (HDAC isoforms): 50%; deacetylation rate of SIRT1 (SIRT1): increased
